From US9999218B2, “Pest control formulations and methods of making and using same” (0903608 B.C. Ltd., priority 2011, dated 2018)
Where two headings read alike, the source gives them in different places.

Legend:
[1] = tested on: adult bed bugs; format: in vivo; conditions: […] neem oil + […] named solvent in isopropanol, 4 h dried residue
[2] = tested on: bed bug eggs; format: in vivo, Cimex lectularius L.; conditions: […] neem oil + named solvent in isopropanol; 4 h dried residue; 3 weeks after infestation
Excerpt: Immediately after infestation, and at 1-, 2-, and 3-week intervals thereafter, the numbers of hatched and unhatched eggs present in the sealed dishes were counted and compared to other Treated Groups. One egg was counted as “hatched” for every new nymph present in the petri dish when compared with the prior interval. Table 13 compares the % egg eclosion of the treated groups at the 3-week observation interval. The maximum mortality data obtained in Example 3, above, are included for comparison purposes.

[3] = tested on: adult bed bugs
Experimental: This example illustrates the dry residual pesticidal activity of formulations comprising varying pesticidal natural oils (oregano, clove and cinnamon oils) with acetophenone as the polar aromatic solvent. Solutions were prepared using 5.5% by weight natural oil; the percent by weight of acetophenone indicated in Table 19 and an appropriate amount of isopropanol as a carrier diluent. The percent by weight of solvent was at a final concentration of 1.5 mol/kg. Solutions were also prepared of each natural oil alone (5.5% by weight with an appropriate amount of isopropanol as a carrier diluent), and of acetophenone alone (the percent by weight indicated in Table 19 with an appropriate amount of isopropanol as a carrier diluent). Treated Groups for each solution were prepared by treating filter paper, 90 mm in diameter, with 1.0 mL of solution and allowing it to air dry for four hours. A known number of adults (usually 10) were added to each treated dish, four hours after treatment. Bed bug mortality was assessed immediately after infestation and at 1-hour, 2-hour, 4-hour, 6-hour, 8-hour, 10 hour, 12-hour, and 24-hour intervals, and at 24-hour intervals thereafter until 14 days after infestation. Adult bed bugs were counted dead if they were unresponsive when stimulated.

[4] = tested on: adult bed bugs; remark: listed apart in the source
Experimental: This example illustrates the dry residual pesticidal activity of formulations comprising further pesticidal natural oils (thyme, garlic and neem oils) with acetophenone as the polar aromatic solvent. Solutions were prepared using 5.5% by weight natural oil; the percentage by weight of organic solvent indicated in Table 20 and an appropriate amount of isopropanol as a carrier diluent. Solvent was added to a final concentration of 1.5 mol/kg. Solutions were also prepared of each natural oil alone (5.5% by weight with an appropriate amount of isopropanol as a carrier diluent), and of the polar organic solvent alone (the percent by weight indicated in Table 20 with an appropriate amount of isopropanol as a carrier diluent). Treated Groups for each solution were prepared by treating filter paper, 90 mm in diameter, with 1.0 mL of solution and allowing it to air dry for four hours. A known number of adults (usually 10) were added to each treated dish, four hours after treatment. Bed bug mortality was assessed immediately after infestation and at 1-hour, 2-hour, 4-hour, 6-hour, 8-hour, 10 hour, 12-hour, and 24-hour intervals, and at 24-hour intervals thereafter until 14 days after infestation. Adult bed bugs were counted dead if they were unresponsive when stimulated.

[5] = tested on: adult bed bugs; conditions: for LT50: 2 h dried residue on filter paper; for Max Mortality: 2 h dried residue, observed until 33 days
Experimental: 1.0 mL of each solution was applied to three replicates of filter paper, 90 millimeters in diameter, contained in petri dishes (Treated Groups). Treated Groups and three replicates of an untreated Control Group were allowed to dry for two hours prior to infestation with a known number of adult bed bugs (approximately half male and half female).
Bed bug mortality was assessed immediately after infestation and at 2-, 4-, 8-, 12-, and 24-hour intervals after infestation, and daily thereafter until 33 days after infestation. Adult bed bugs were counted dead if they were unresponsive when stimulated.

[6] = tested on: bed bug eggs; assay: Prevention of egg emergence by various pesticidal natural oils (Example 11); format: in vivo, Cimex lectularius L.; conditions: for % Eclosion (3 weeks post-infest.): 2 h dried residue, five eggs
Experimental: Five bed bug eggs were added to each treated dish, two hours after treatment. Immediately after infestation, and at 1-, 2-, and 3-week intervals thereafter, the numbers of hatched and unhatched eggs present in the sealed dishes were counted and compared to other Treated Groups. One egg was counted as “hatched” for every new nymph present in the petri dish when compared with the prior interval. Table 12 compares the mean % egg eclosion of the treated groups at three weeks post-infestation. The maximum mortality data obtained in Example 2, above, are included for each formulation, for comparison purposes.

[7] = 4 h dried residue on filter paper
[8] = […] by weight oil and/or 18.25% w/w acetophenone in isopropanol, 4 h dried residue on filter paper
[9] = time of maximum mortality, 4 h dried residue on filter paper
[10] = […] oil + 5.0% acetophenone + […] sodium lauryl sulphate in water
[11] = […] oil + 5.0% ethyl lactate + […] sodium lauryl sulphate in water

In the case of `CC(=O)c1ccccc1` [Acetophenone], the “Time to Max Mortality” value [1] is reported as 24 h, the “Max. Mortality” value ([1]; observed until 14 days) is reported as 100% and the “% Eclosion” value [2] is reported as 0%. For the same compound, the LT50 [3, 7] was 17 h, the “Max Mortality” value [3, 8] was 100% and the Time [3, 9] was 53 h. For the same compound, the LT50 [4, 7] was 11 h, the “Max Mortality” value [4, 8] was 100% and the Time [4, 9] was 48 h.

`C=CCc1ccc(O)c(OC)c1` [Eugenol] gave an LT50 [5, 10] of 2.82 h, a Max Mortality [5, 10] of 100% and an LT50 [5, 11] of 9.91 h. For the same compound, the Max Mortality [5, 11] was 100%, the “prevention of egg eclosion” value ([6]; […] by weight oil with 5.0% acetophenone, all observation intervals) was “some increased prevention of egg emergence” and the “% Eclosion (3 weeks post-infest.)” value ([6]; […] oil + 5.0% acetophenone in water) was 20%. The “% Eclosion (3 weeks post-infest.)” value ([6]; […] oil + 5.0% ethyl lactate in water) was 40% and the “prevention of egg eclosion” value ([6]; […] oil combined with 15.5% acetophenone by weight) was “complete prevention of egg eclosion”.

In the case of Cinnamon Oil, the “Max Mortality” value ([3]; in vivo) is reported as 90% and the “Max Mortality” value ([4]; in vivo) is reported as 100%.
